For one data set, the system named is NCIH1975 cell line. The data set is described as follows: CellTiter-Glo cell viability assay with Bliss synergy, NCIH1975 cells. Type of data set: cell-based. In general terms: Cellular ATP, detected with luciferase, serves as a proxy for viable cell number.
For a further data set, the system named is BT474 cell line. The data set can be described thus: CellTiter-Glo cell viability assay with Bliss synergy, BT474 cells. Type of data set: cell-based.

Turning to `O=C(c1cc(Cc2n[nH]c(=O)c3ccccc23)ccc1F)N1CCN(C(=O)C2CC2)CC1` [Olaparib], the Viability/εij with NCIH1975 cell line (Olaparib 6.67 μM monotherapy) is on record as 0.678; in the data set on BT474 cell line (Olaparib 6.67 μM monotherapy), 0.825.
With `O=c1[nH]c(=S)[nH]c(N=Cc2ccccc2)c1N=Cc1ccccc1` [SCR7], the Viability/εij in the data set with BT474 cell line (SCR7 60 μM monotherapy) was 0.653.
As for `Cn1ncnc1[C@H]1c2n[nH]c(=O)c3cc(F)cc(c23)N[C@@H]1c1ccc(F)cc1` [Talazoparib], the Viability/εij with NCIH1975 cell line (Talazoparib 0.25 μM monotherapy) is listed as 0.597.

Source of the values: patent US20230039766A1, “COMBINATION THERAPY” (TURBINE SIMULATED CELL TECHNOLOGIES LTD, priority 2019, published 2023).
